According to ChEMBL document CHEMBL4813957, “Antitubercular properties of thiazolidin-4-ones - A review” (Eur J Med Chem, 2021):
In brackets after ≈: the same amount, converted by molar mass.

Legend:
Assay type in all cases: functional
[1] = system: Mycobacterium tuberculosis variant bovis BCG; experiment: Antimycobacterial activity against Mycobacterium bovis BCG ATCC35743 by nitrate reductase assay
[2] = system: Mycobacterium tuberculosis variant bovis BCG; experiment: Antimycobacterial activity against Mycobacterium bovis BCG ATCC 35734 measured on 12th day by nitrate reductase assay; details: ATCC 35734, 288 h, time 12 day
[3] = system: Mycobacterium tuberculosis; experiment: Antimycobacterial activity against multidrug resistant Mycobacterium tuberculosis measured up to 2 weeks; details: 336 h, time weeks <=2
[4] = system: Mycobacterium tuberculosis; experiment: Antimycobacterial activity against ethambutol/pyrazinamide/kanamycin/streptomycin/ofloxacin/moxifloxacin/levofloxacin resistant Mycobacterium tuberculosis measured up to 2 weeks; details: 336 h, time weeks <=2
[5] = system: Mycobacterium tuberculosis; experiment: Antimycobacterial activity against extensively drug resistant Mycobacterium tuberculosis measured up to 2 weeks; details: 336 h, time weeks <=2

O=C1NC(=S)S/C1=C\c1ccc([N+](=O)[O-])cc1
IC90 [1]: 25.7 µg/mL (≈ 96.5 µM)

CCOc1ccc(N2C(=O)CSC2c2ccc(OCc3cc4ccccc4n4nnnc34)cc2)cc1 (stereo not drawn)
MIC [2]: 7.09 µg/mL (≈ 14.2 µM)

NC(=O)c1cnccn1 [PYRAZINAMIDE]
MIC [2]: 20 µg/mL (≈ 162 µM)

O=C1CSC(c2ccc(OCc3cc4ccccc4n4nnnc34)cc2)N1c1ccc([N+](=O)[O-])cc1 (stereo not drawn)
MIC [2]: 3.8 µg/mL (≈ 7.62 µM)

O=C(O)CCCCCC1NC(=O)CS1 (stereo not drawn)
MIC [3]: 0.6 µM (≈ 0.13 µg/mL)
MIC [4]: 0.2 µM (≈ 0.0435 µg/mL)
MIC [5]: 0.096 µM (≈ 0.0209 µg/mL)

O=C1CSC(c2ccc(OCc3cc4ccccc4n4nnnc34)cc2)N1c1ccccc1 (stereo not drawn)
MIC [2]: 9.13 µg/mL (≈ 20.1 µM)
